Source: paper PMC5218480 (PLoS ONE, 2017)

System: MV-4-11 cells
Test: Gene expression microarray analysis (Affymetrix PrimeView) and GSEA
Assay type: cell-based, human
Design: RFU PODN (11730768_x_at) / Fold change /veh PODN (11730768_x_at) / RFU LINC00158 (11744669_a_at) / Fold change /veh LINC00158 (11744669_a_at) / RFU DUSP10 (11751237_a_at) / Fold change /veh DUSP10 (11751237_a_at) / RFU ID3 (11757404_x_at) / Fold change /veh ID3 (11757404_x_at) / RFU PLEKHG5 (11737974_s_at) / Fold change /veh PLEKHG5 (11737974_s_at) / RFU LRRC4B (11730491_at) / Fold change /veh LRRC4B (11730491_at) / RFU GIMAP4 (11747438_a_at) / Fold change /veh GIMAP4 (11747438_a_at) / RFU KRT8 (11758183_x_at) / Fold change /veh KRT8 (11758183_x_at) / RFU CNN1 (11734310_a_at) / Fold change /veh CNN1 (11734310_a_at) / RFU VPS37D (11726825_at) / Fold change /veh VPS37D (11726825_at) / RFU C10orf10 (11716522_x_at) / Fold change /veh C10orf10 (11716522_x_at) / RFU KIR2DL2 /// KIR2DL4 /// KIR2DL5A /// KIR2DL5B /// KIR2DS1 /// KIR2DS2 /// KIR2DS3 /// KIR2DS4 /// KIR3DL3 /// KIR3DL3 /// KIR3DS1 (11738374_at) / Fold change /veh KIR2DL2 /// KIR2DL4 /// KIR2DL5A /// KIR2DL5B /// KIR2DS1 /// KIR2DS2 /// KIR2DS3 /// KIR2DS4 /// KIR3DL3 /// KIR3DL3 /// KIR3DS1 (11738374_at) / RFU C1QL1 (11718748_at) / Fold change /veh C1QL1 (11718748_at) / RFU TMPRSS4 (11747572_a_at) / Fold change /veh TMPRSS4 (11747572_a_at) / RFU HAMP (11756126_x_at) / Fold change /veh HAMP (11756126_x_at) / RFU RNFT2 (11725882_a_at) / Fold change /veh RNFT2 (11725882_a_at) / RFU NR4A2 (11747474_a_at) / Fold change /veh NR4A2 (11747474_a_at) / RFU ABCC12 (11746883_a_at) / Fold change /veh ABCC12 (11746883_a_at) / RFU TMEM136 (11760407_x_at) / Fold change /veh TMEM136 (11760407_x_at) / RFU CLDN22 /// WWC2 (11732394_at) / Fold change /veh CLDN22 /// WWC2 (11732394_at) / RFU HLA-DPB1 (11760878_x_at) / Fold change /veh HLA-DPB1 (11760878_x_at) / RFU SPINT1 (11716480_a_at) / Fold change /veh SPINT1 (11716480_a_at) / RFU GAP43 (11754022_s_at) / Fold change /veh GAP43 (11754022_s_at) / RFU A4GNT (11735810_at) / Fold change /veh A4GNT (11735810_at) / RFU PRB3 (11715151_x_at) / Fold change /veh PRB3 (11715151_x_at) / RFU TUBB4B (11761932_at) / Fold change /veh TUBB4B (11761932_at) / RFU CAPN14 (11732068_a_at) / Fold change /veh CAPN14 (11732068_a_at) / RFU TMCC2 (11721928_a_at) / Fold change /veh TMCC2 (11721928_a_at) / RFU IRGQ (11745062_a_at) / Fold change /veh IRGQ (11745062_a_at) / RFU FAM174B (11720279_a_at) / Fold change /veh FAM174B (11720279_a_at) / RFU TMPRSS4 (11748680_a_at) / Fold change /veh TMPRSS4 (11748680_a_at) / RFU FAM212B (11763350_a_at) / Fold change /veh FAM212B (11763350_a_at) / RFU PLEKHG5 (11743358_a_at) / Fold change /veh PLEKHG5 (11743358_a_at) / RFU ZSCAN30 (11745921_a_at) / Fold change /veh ZSCAN30 (11745921_a_at) / RFU CMKLR1 (11741424_a_at) / Fold change /veh CMKLR1 (11741424_a_at) / RFU LOC101060620 /// MAPK8IP1 (11723275_at) / Fold change /veh LOC101060620 /// MAPK8IP1 (11723275_at) / RFU SPTSSB (11747773_x_at) / Fold change /veh SPTSSB (11747773_x_at) / RFU PRSS12 (11739890_at) / Fold change /veh PRSS12 (11739890_at) / RFU BIN1 (11741810_x_at) / Fold change /veh BIN1 (11741810_x_at) / RFU WNT11 (11732464_a_at) / Fold change /veh WNT11 (11732464_a_at) / RFU C10orf10 (11716521_a_at) / Fold change /veh C10orf10 (11716521_a_at) / RFU C5orf56 (11738089_at) / Fold change /veh C5orf56 (11738089_at) / RFU CYB561 (11721691_x_at) / Fold change /veh CYB561 (11721691_x_at) / RFU ANKRD19P (11752326_a_at) / Fold change /veh ANKRD19P (11752326_a_at) / RFU OR2T12 /// OR2T33 /// OR2T8 (11738714_s_at) / Fold change /veh OR2T12 /// OR2T33 /// OR2T8 (11738714_s_at) / RFU VCAN (11748164_a_at) / Fold change /veh VCAN (11748164_a_at) / RFU JSRP1 (11732532_at) / Fold change /veh JSRP1 (11732532_at) / RFU KRTAP10-11 (11738290_x_at) / Fold change /veh KRTAP10-11 (11738290_x_at) / RFU MYO3A (11730013_a_at) / Fold change /veh MYO3A (11730013_a_at) / RFU EBF3 (11725865_a_at) / Fold change /veh EBF3 (11725865_a_at) / RFU CAMK2N1 (11719241_x_at) / Fold change /veh CAMK2N1 (11719241_x_at) / RFU C5orf56 (11738088_a_at) / Fold change /veh C5orf56 (11738088_a_at) / RFU OLFML3 (11715873_a_at) / Fold change /veh OLFML3 (11715873_a_at) / RFU LOC100653217 /// NTM (11731650_a_at) / Fold change /veh LOC100653217 /// NTM (11731650_a_at) / RFU MAPK11 (11762145_a_at) / Fold change /veh MAPK11 (11762145_a_at) / RFU FIZ1 (11724087_x_at) / Fold change /veh FIZ1 (11724087_x_at) / RFU OASL (11726364_x_at) / Fold change /veh OASL (11726364_x_at) / RFU SOX15 (11748057_x_at) / Fold change /veh SOX15 (11748057_x_at) / RFU CD79A (11719716_a_at) / Fold change /veh CD79A (11719716_a_at) / RFU HIST1H1D (11736915_at) / Fold change /veh HIST1H1D (11736915_at) / RFU CASKIN2 (11723855_a_at) / Fold change /veh CASKIN2 (11723855_a_at) / RFU LOC730098 (11760151_x_at) / Fold change /veh LOC730098 (11760151_x_at) / RFU OR4N2 (11742367_at) / Fold change /veh OR4N2 (11742367_at) / RFU PRRT2 (11749266_a_at) / Fold change /veh PRRT2 (11749266_a_at) / RFU SNX32 (11753110_a_at) / Fold change /veh SNX32 (11753110_a_at) / RFU CDHR5 (11726645_a_at) / Fold change /veh CDHR5 (11726645_a_at) / RFU RCAN1 (11760418_a_at) / Fold change /veh RCAN1 (11760418_a_at) / RFU FAM167A (11723789_a_at) / Fold change /veh FAM167A (11723789_a_at) / RFU FAM26E (11764081_at) / Fold change /veh FAM26E (11764081_at) / RFU ISYNA1 (11749810_s_at) / Fold change /veh ISYNA1 (11749810_s_at) / RFU ACY1 (11761880_at) / Fold change /veh ACY1 (11761880_at) / RFU 11764098_at / Fold change /veh 11764098_at / RFU SAMD14 (11745864_x_at) / Fold change /veh SAMD14 (11745864_x_at) / RFU NPB (11741838_a_at) / Fold change /veh NPB (11741838_a_at) / RFU TMPRSS6 (11731388_a_at) / Fold change /veh TMPRSS6 (11731388_a_at) / RFU KRTAP10-2 (11738614_at) / Fold change /veh KRTAP10-2 (11738614_at) / RFU ARHGAP8 /// PRR5-ARHGAP8 (11727945_x_at) / Fold change /veh ARHGAP8 /// PRR5-ARHGAP8 (11727945_x_at) / RFU KRTAP5-7 /// NADSYN1 (11734609_at) / Fold change /veh KRTAP5-7 /// NADSYN1 (11734609_at) / RFU RASL12 (11751679_a_at) / Fold change /veh RASL12 (11751679_a_at) / RFU CDKN2B (11736163_a_at) / Fold change /veh CDKN2B (11736163_a_at) / RFU PRF1 (11729649_at) / Fold change /veh PRF1 (11729649_at) / RFU, ZNF638 /// ZNF638-IT1 / Fold change vs veh, ZNF638 /// ZNF638-IT1 / RFU, PANK3 / Fold change vs veh, PANK3 / RFU, SH3YL1 / Fold change vs veh, SH3YL1 / RFU, ZEB2 / Fold change vs veh, ZEB2 / RFU, NRIP1 / Fold change vs veh, NRIP1 / RFU, PTTG1IP / Fold change vs veh, PTTG1IP / RFU, CAPN2 / Fold change vs veh, CAPN2 / RFU, MED14 / Fold change vs veh, MED14 / RFU, SNORA58 / Fold change vs veh, SNORA58 / RFU, C1orf63 / Fold change vs veh, C1orf63 / RFU, LRRFIP1 / Fold change vs veh, LRRFIP1 / RFU, NDUFAF7 / Fold change vs veh, NDUFAF7 / RFU, SLC12A2 / Fold change vs veh, SLC12A2 / RFU, IBTK / Fold change vs veh, IBTK / RFU, ESF1 / Fold change vs veh, ESF1 / Fold change vs veh, TMEM50B / RFU, TAOK1 / Fold change vs veh, TAOK1 / RFU, ACBD3 / Fold change vs veh, ACBD3 / RFU, TMA16 / Fold change vs veh, TMA16 / RFU, RWDD3 / Fold change vs veh, RWDD3 / RFU, BCAT1 / Fold change vs veh, BCAT1 / RFU, EDEM3 / Fold change vs veh, EDEM3 / RFU, TMEM33 / Fold change vs veh, TMEM33 / RFU, WDR75 / Fold change vs veh, WDR75 / RFU, AHCTF1 / Fold change vs veh, AHCTF1 / RFU, TFRC / Fold change vs veh, TFRC / RFU, ZDHHC17 / Fold change vs veh, ZDHHC17 / RFU, NOM1 / Fold change vs veh, NOM1 / RFU, ARL8B / Fold change vs veh, ARL8B / RFU, ZBTB11 / Fold change vs veh, ZBTB11 / RFU, TAMM41 / Fold change vs veh, TAMM41 / RFU, KIAA1704 /// LOC100996395 / Fold change vs veh, KIAA1704 /// LOC100996395 / RFU, ING1 / Fold change vs veh, ING1 / RFU, TRMT61B / Fold change vs veh, TRMT61B / RFU, FUBP3 / Fold change vs veh, FUBP3 / RFU, TP53 / Fold change vs veh, TP53 / RFU, TNKS2 / Fold change vs veh, TNKS2 / RFU, ZFP14 / Fold change vs veh, ZFP14 / RFU, ACTR2 / Fold change vs veh, ACTR2 / RFU, PPP3R1 / Fold change vs veh, PPP3R1 / RFU, PIK3R1 / Fold change vs veh, PIK3R1 / RFU, HNRNPA1 / Fold change vs veh, HNRNPA1 / RFU, RNF170 / Fold change vs veh, RNF170 / RFU, ZNF28 / Fold change vs veh, ZNF28 / RFU, RNGTT / Fold change vs veh, RNGTT / RFU, OGT / Fold change vs veh, OGT / RFU, BRD1 / Fold change vs veh, BRD1 / RFU, MARS / Fold change vs veh, MARS / RFU, ZNF655 / Fold change vs veh, ZNF655 / RFU, FAHD1 / Fold change vs veh, FAHD1 / RFU, BDP1 / Fold change vs veh, BDP1 / RFU, LRRCC1 / Fold change vs veh, LRRCC1 / RFU, ARID1A / Fold change vs veh, ARID1A / RFU, ZNF146 / Fold change vs veh, ZNF146 / RFU, ZNF330 / Fold change vs veh, ZNF330 / RFU, GPN3 / Fold change vs veh, GPN3 / RFU, C9orf123 / Fold change vs veh, C9orf123 / RFU, N4BP2L2 / Fold change vs veh, N4BP2L2 / RFU, ARFIP1 / Fold change vs veh, ARFIP1 / RFU, FAM179B / Fold change vs veh, FAM179B / RFU, BCL10 / Fold change vs veh, BCL10 / RFU, UHRF1BP1L / Fold change vs veh, UHRF1BP1L / RFU, BET1 / Fold change vs veh, BET1 / RFU, CNOT2 / Fold change vs veh, CNOT2 / RFU, ZNF268 / Fold change vs veh, ZNF268 / Fold change vs veh, ZNF507 / RFU, DGCR2 / Fold change vs veh, DGCR2 / RFU, WDSUB1 / Fold change vs veh, WDSUB1 / Fold change vs veh, HSP90B1 /// MIR3652 / RFU, ADSS / Fold change vs veh, ADSS / RFU, GK / Fold change vs veh, GK / RFU, ZNF148 / Fold change vs veh, ZNF148 / RFU, TAF9 / Fold change vs veh, TAF9 / RFU, SLC1A5 / Fold change vs veh, SLC1A5 / RFU, SLMO2 / Fold change vs veh, SLMO2 / RFU, ABCC4 / Fold change vs veh, ABCC4 / RFU, LOC101060439 /// RAP1B / Fold change vs veh, LOC101060439 /// RAP1B / RFU, RFX7 / Fold change vs veh, RFX7 / RFU, GTPBP10 / Fold change vs veh, GTPBP10 / RFU, CNEP1R1 / Fold change vs veh, CNEP1R1 / RFU, BIVM-ERCC5 /// ERCC5 / Fold change vs veh, BIVM-ERCC5 /// ERCC5 / RFU, ILF3 / Fold change vs veh, ILF3 / RFU 11762660_at / Fold change /veh 11762660_at / RFU VCAN (11757783_s_at) / Fold change /veh VCAN (11757783_s_at) / RFU DDX43 (11728927_at) / Fold change /veh DDX43 (11728927_at) / RFU KRT8 (11758188_x_at) / Fold change /veh KRT8 (11758188_x_at) / RFU NKD1 (11759106_at) / Fold change /veh NKD1 (11759106_at) / RFU SRD5A1 (11742802_a_at) / Fold change /veh SRD5A1 (11742802_a_at) / RFU TPSAB1 /// TPSB2 (11721975_s_at) / Fold change /veh TPSAB1 /// TPSB2 (11721975_s_at) / RFU GSTM3 (11746129_a_at) / Fold change /veh GSTM3 (11746129_a_at) / RFU IL23R (11737362_x_at) / Fold change /veh IL23R (11737362_x_at) / RFU TMEM51 (11727254_a_at) / Fold change /veh TMEM51 (11727254_a_at) / RFU PIWIL2 (11732686_x_at) / Fold change /veh PIWIL2 (11732686_x_at) / RFU ORM1 (11744905_x_at) / Fold change /veh ORM1 (11744905_x_at) / RFU CCDC152 (11743942_at) / Fold change /veh CCDC152 (11743942_at) / RFU ECM1 (11717891_a_at) / Fold change /veh ECM1 (11717891_a_at) / RFU IL23R (11748794_a_at) / Fold change /veh IL23R (11748794_a_at) / RFU TNFAIP8L3 (11732012_x_at) / Fold change /veh TNFAIP8L3 (11732012_x_at) / RFU MBOAT4 (11741988_at) / Fold change /veh MBOAT4 (11741988_at) / RFU 11764193_at / Fold change /veh 11764193_at / RFU TMEM53 (11763286_at) / Fold change /veh TMEM53 (11763286_at) / RFU MAGEB2 (11727129_at) / Fold change /veh MAGEB2 (11727129_at) / RFU TMEM200A (11744735_a_at) / Fold change /veh TMEM200A (11744735_a_at) / RFU CCDC152 (11751479_a_at) / Fold change /veh CCDC152 (11751479_a_at) / RFU FAM211A (11726209_a_at) / Fold change /veh FAM211A (11726209_a_at) / RFU RGS16 (11746705_a_at) / Fold change /veh RGS16 (11746705_a_at) / RFU VCAN (11755009_s_at) / Fold change /veh VCAN (11755009_s_at) / RFU RHOB (11743442_s_at) / Fold change /veh RHOB (11743442_s_at) / RFU RGS16 (11720943_a_at) / Fold change /veh RGS16 (11720943_a_at) / RFU RGS16 (11720944_at) / Fold change /veh RGS16 (11720944_at) / RFU, VPS4B / Fold change vs veh, VPS4B / RFU, CREB1 / Fold change vs veh, CREB1 / RFU, DNAJC13 / Fold change vs veh, DNAJC13 / RFU, GNAQ / Fold change vs veh, GNAQ / RFU, CDK5R1 / Fold change vs veh, CDK5R1 / RFU, ZRANB3 / Fold change vs veh, ZRANB3 / RFU, CUL4A / Fold change vs veh, CUL4A / RFU, CCNY / Fold change vs veh, CCNY / RFU, UFL1 / Fold change vs veh, UFL1 / RFU, COG3 / Fold change vs veh, COG3 / RFU, DIAPH2 / Fold change vs veh, DIAPH2 / RFU, SKA2 / Fold change vs veh, SKA2 / RFU, AFF3 / Fold change vs veh, AFF3 / RFU, LMF1 / Fold change vs veh, LMF1 / RFU, IPO11 / Fold change vs veh, IPO11 / RFU, DFFB / Fold change vs veh, DFFB / RFU, FOXP1 / Fold change vs veh, FOXP1 / RFU, CARD8 / Fold change vs veh, CARD8 / RFU, STRN3 / Fold change vs veh, STRN3 / RFU, ADK / Fold change vs veh, ADK / RFU, RASSF2 / Fold change vs veh, RASSF2 / RFU, WIPF1 / Fold change vs veh, WIPF1 / RFU, LARP1B / Fold change vs veh, LARP1B / RFU, RASA1 / Fold change vs veh, RASA1 / RFU, RB1 / Fold change vs veh, RB1 / RFU, PPFIA1 / Fold change vs veh, PPFIA1 / RFU, MAT2A / Fold change vs veh, MAT2A / RFU, CCT5 / Fold change vs veh, CCT5 / RFU, WDR92 / Fold change vs veh, WDR92 / RFU, CUX1 / Fold change vs veh, CUX1 / RFU, TTC7A / Fold change vs veh, TTC7A / RFU, TMEM135 / Fold change vs veh, TMEM135 / RFU, DEPTOR / Fold change vs veh, DEPTOR / RFU, CPM / Fold change vs veh, CPM / RFU, DNAJB6 / Fold change vs veh, DNAJB6 / RFU, CACNA2D3 / Fold change vs veh, CACNA2D3 / RFU, DTX4 / Fold change vs veh, DTX4 / RFU, TFCP2 / Fold change vs veh, TFCP2 / RFU, GMCL1 /// GMCL1P1 / Fold change vs veh, GMCL1 /// GMCL1P1 / RFU, AEBP2 / Fold change vs veh, AEBP2 / RFU, SNHG1 /// SNORD22 /// SNORD25 /// SNORD26 /// SNORD27 /// SNORD28 /// SNORD29 /// SNORD31 / Fold change vs veh, SNHG1 /// SNORD22 /// SNORD25 /// SNORD26 /// SNORD27 /// SNORD28 /// SNORD29 /// SNORD31 / Fold change (Aza/veh), C12orf56 (ProbeSet 11735607_a_at) / Fold change (ACY-1035/veh), C12orf56 (ProbeSet 11735607_a_at) / Fold change (Aza/veh), FGFR1OP (ProbeSet 11751329_s_at) / Fold change (ACY-1035/veh), FGFR1OP (ProbeSet 11751329_s_at) / Fold change (Aza/veh), VPS36 (ProbeSet 11739960_a_at) / Fold change (ACY-1035/veh), VPS36 (ProbeSet 11739960_a_at) / RFU SYPL1 (11715823_x_at) / Fold change /veh SYPL1 (11715823_x_at) / RFU IGFBP7 (11715501_s_at) / Fold change /veh IGFBP7 (11715501_s_at) / RFU REEP3 (11722064_at) / Fold change /veh REEP3 (11722064_at) / RFU IGLL1 (11728026_x_at) / Fold change /veh IGLL1 (11728026_x_at): dose or concentration left out as unconfirmed
Conditions: MV-4-11 cells, 48 hours

Compound: Nc1ncn([C@@H]2O[C@H](CO)[C@@H](O)[C@H]2O)c(=O)n1 [azacitidine]
- Fold change /veh CLDN22 /// WWC2 (11732394_at): 1.14
